ChEMBL document CHEMBL1142514, “Improved synthesis of 6-epi-dictyostatin and antitumor efficacy in mice bearing MDA-MB231 human breast cancer xenografts” (2008)

Experiments:
Type in all cases: functional
MDA-MB-231 [1] = assay: Antitumor activity against human MDA-MB-231 cells xenografted in CB17 SCID mouse assessed as two tumor doubling time administered at 20 mg/kg, iv q7d in 3 schedule
MDA-MB-231 [2] = assay: Antitumor activity against human MDA-MB-231 cells xenografted in CB17 SCID mouse assessed as one tumor doubling time administered at 20 mg/kg, iv q7d in 3 schedule
MDA-MB-231 [3] = assay: Antitumor activity against human MDA-MB-231 cells xenografted in CB17 SCID mouse assessed as ratio of median tumor volume for drug to control administered at 20 mg/kg, iv q7d in 3 schedule after 14 days
MDA-MB-231 [4] = assay: Antitumor activity against human MDA-MB-231 cells xenografted in CB17 SCID mouse assessed as ratio of median tumor volume for drug to vehicle administered at 20 mg/kg, iv q7d in 3 schedule after 17 days

**Q.** Which Activity (MDA-MB-231 [1]) does the source give for `CC(=O)O[C@H]1C(=O)[C@@]2(C)[C@H]([C@H](OC(=O)c3ccccc3)[C@]3(O)C[C@H](OC(=O)[C@H](O)[C@@H](NC(=O)c4ccccc4)c4ccccc4)C(C)=C1C3(C)C)[C@]1(OC(C)=O)CO[C@@H]1C[C@@H]2O` [PACLITAXEL] here?
**A.** The Activity was 19 days.

**Q.** What about the Activity (MDA-MB-231 [2]) of the same molecule?
**A.** Its Activity is 7.9 days.

**Q.** And the T/C (MDA-MB-231 [3])?
**A.** The T/C was 33%.

**Q.** What about the Activity (MDA-MB-231 [4]) of the same molecule?
**A.** The Activity was 31%.
